Patent US20120122085A1, “RECQL4/RECQL4 VARIANT-P53 COMPLEX FOR ALTERED MITOCHONDRIAL FUNCTION IN ROTHMUND-THOMSON SYNDROME” (NATIONAL INSTUTUTE OF IMMUNOLOGY, priority 2009, published 2012)
Entries after “also recorded” stand apart in the source; their conditions may differ.

Test system: RTS patient cells
Assay: Intracellular ROS in RTS cells measured by oxidation of CM-H2DCFDA after DNA damage
Type: cell-based, human
Conditions: post exposure to mitomycin C, FIG. 10E
Source text: By transmission electron microscopy (TEM) we observed that the mitochondrial cristae were distorted and the intercristal space expanded in all the RTS fibroblasts grown under asynchronous conditions (FIG. 10A). The extent of the cristae space is known to affect the overall chemiosmotic function in the cell (Mannella, 2006). […] Apart from ATP, mitochondria also produce the reactive oxygen species (ROS). Spontaneous ROS levels are usually low in normal cells as elevation of ROS levels can result in significant damage to cell structure (Schumacker, 2006). Indeed the level of ROS in asynchronous NHF was low as determined by the oxidation of 5-(and-6)-chloromethyl-2′,7′-dichlorodihydrofluorescein diacetate, acetyl ester (CM-H2DCFDA). […] Mitochondrial mass was determined by usage of a fluorescent dye Mitotracker Red 580 (200 nM, Invitrogen). […] The cells were subsequently washed, fixed and then analyzed in a Zeiss 510 Meta system with a 40×/0.95 Con objective. The fluorescence was captured initially for NHF and the acquisition parameters were kept unchanged for the capture of the fluorescence for the RTS cells. […] The activity was measured at 412 nm at 30° C. using 10 μg for each sample. Activity was expressed as nmole/min/mg of protein. Intracellular ROS in RTS cells was measured by the oxidation of CM-H2DCFDA (4 μM, Invitrogen). […]

O=C1O[C@H]([C@@H](O)CO)C(O)=C1O [ascorbic acid] was tested, and the “effect on abnormally high ROS levels in RTS cells after DNA damage” value was “decreases the load of reactive oxygen species; also recorded: reversed this effect”.
